Test results as given in patent publication US11351151B2, “Compound having anticancer activity and preparation method and application” (3D Medicines (Beijing) Co., Ltd., priority 2016, dated 2022).
Values joined by “and” are separate entries in the source; they are usually repeats but may differ in a detail not shown here. Equal values may be shown once. “Also recorded” adds a separate entry of the source.

Assays:
22RV1 = test: Cell proliferation assay (Alamar Blue); type: cell-based; settings: Homo sapiens, 144 h; 22RV1 tumor cell line; 6 days
Method in brief: (§1)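 AlamarBlue fluorescence (ex 560, em 590 nm) after 6-day compound exposure; IC50 by four-parameter fit. Nine 3.16-fold dilutions, top 30 or 100 μM, duplicate wells. Log-phase cells plated at line-optimised density, 4 h pre-incubation.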

HEPG2 = test: Cell proliferation assay (Alamar Blue); type: cell-based; settings: Homo sapiens, 144 h; HEPG2 liver cancer cell line; 6 days
Method in brief: as §1

HLF = test: Cell proliferation assay (Alamar Blue); type: cell-based; settings: 144 h; HLF liver cancer cell line; 6 days
Method in brief: as §1

JHH4 = test: Cell proliferation assay (Alamar Blue); type: cell-based; settings: JHH-4, 144 h; JHH4 liver cancer cell line; 6 days
Method in brief: as §1

JHH7 = test: Cell proliferation assay (Alamar Blue); type: cell-based; settings: 144 h; JHH7 liver cancer cell line; 6 days
Method in brief: as §1

MDA-MB-435S = test: Cell proliferation assay (Alamar Blue); type: cell-based; settings: Homo sapiens, 144 h; MDA-MB-435S tumor cell line; 6 days
Method in brief: as §1

T.T = test: Cell proliferation assay (Alamar Blue); type: cell-based; settings: Homo sapiens, TT, 144 h; T.T tumor cell line; 6 days
Method in brief: as §1

[1] = test system: 54 commercial tumor cell lines; test: Cell proliferation assay (Alamar Blue), summary over the panel; type: cell-based; settings: in almost all tumor cell lines
Description: 1. Instruments and Materials • Thermo 311 CO2 incubator; Haier biosafety cabinet; Molecular Devices microplate reader; Xiangyi brand L530 desktop low speed centrifuge; Olympus IX51 inverted fluorescence microscope, DMEM, RPMI 1640, MEM, DMEM/F12 1:1 medium, Fetal bovine serum, 0.25% trypsin solution, phosphate buffer (Thermo Fisher Shanghai Co., Ltd.); sigma dimethyl sulfoxide (DMSO), resazurin; 54 commercial tumor cell lines (including 26 liver cancer cell lines). Experimental drugs: compounds 1-12 and active drug Linifanib; chemotherapeutic drug Doxorubicin (HY-15142; Shanghai Qianyuan Biomedical Technology Co., Ltd.).
2. Experimental Methods • 2.1 Cultivation of different cell lines • 54 cell lines were cultured in a culture medium containing fetal bovine serum and placed in a 5% CO 2 incubator at 37° C. for incubation. The cells were all grown in an adherent state, and the growth was observed under an inverted microscope, and subculture was performed when the cell confluence rate reached 80%-90%. The proportion and quantity of passage were determined by experimental needs. The ratio of subculture of this cell line was generally 1:2^˜1:3. • 2.2 inhibition effect on the proliferation of different tumor cell lines • Cell test: 54 cell lines in logarithmic growth phase were inoculated in 96-well culture plates at 500^˜1×10^4/well (the optimal seeding density of each cell line was determined in pre-experiment), After incubating at 37° C. for 4 h in a 5% CO2 humidification incubator, added 10 μL of compounds 1-12 or Linifanib to each well, and tested 9 drug concentration gradients for each compound (diluted from the highest concentration of the test by 3.16 times). The solubility of each compound was different at a starting concentration of 30 or 100 μM, respectively. The QC reference compound Doxorubicin was added simultaneously to each cell line test, and the final drug concentrations were 10, 3.16, 1, 0.31, 0.1, 0.03, 0.01, 0.003, and 0.001 μM, respectively. In addition, a positive control group (100% inhibition) and a negative control group (0% inhibition) were set at the same time. The drug group was repeated for 2 wells per concentration, and the positive control group and the negative control group were repeated for 6 wells. After the culture was continued for 6 days in the incubator, AlamarBlue test operation was followed; • AlamarBlue test procedure: Incubated with 10 μL of AlamarBlue reagent per well for 1-4 h, shook for 1-2 min, MD microplate reader EX: 560 nm, EM: 590 nm wavelength to measure fluorescence, recorded the results, calculated the cell inhibition rate of the compound of the invention. […]

[2] = Plasma incubation stability study; type: in vitro ADME, SD rat; settings: for Residual intermediate: rat plasma, 37° C., 2 μg/mL added, listed as intermediate
Description: The purpose of this example was to investigate the stability of the precursor Linifanib-C12-AA5 (compound 8) and the intermediate Linifanib-C12-Asp (compound 12) in plasma, liver homogenate and spleen homogenate (precursor Linifanib-C12-AA5 metabolizes into the intermediates Linifanib-C12-Asp and Linifanib; the intermediate Linifanib-C12-Asp is further metabolized to form Linifanib), and the metabolites were analyzed quantitatively, and the stability of the incubation system was verified with positive drugs, providing references for compound drug evaluation.
• Instrument: AP13000 LC/MS, ABI • Materials: Male SD rats (200-250 g), Beijing Vital River • Test samples: positive drugs and their metabolites M1 and M2, Linifanib-C12-AA5 and its metabolites Linifanib-C12-ASP and Linifanib. 2. Stability study of Linifanib-C12-AA5 and Linifanib-C12-Asp • 2.1 Linifanib-C12-AA5 and Linifanib-C12-Asp plasma incubation stability study protocol Test animal • Type: SD rat; Quantity: 2 • Sex: male; weight: 200-250 g;
Experimental Procedure • 1. Animal blood was collected, blood samples were placed in EDTA anticoagulation tubes, centrifuged at 3000 g for 15 min at 4° C., plasma was separated, and 2 blood samples were mixed in equal volumes; • 2. Weighed and dissolved a certain amount of Linifanib-C12-AA5/Linifanib-C12-Asp in DMSO:MeOH (2:8), prepared 200 μM mother liquor by purity, and added the compound to the plasma to a final concentration of 2 μg/mL. The organic ratio in the system was not more than 0.5%. • 3. Incubated in a 37° C. water bath and set the sampling points to 0, 0.5, 1, 2, 4, 6, and 8 h. At each sampling point, 100 μL of each sample was added to 300 μL of acetonitrile (with internal standard) for precipitation, centrifuged at 12,000 rpm for 5 min, and 200 μL of supernatant was taken for analysis by LC-MS/MS. • 4. Configured the standard curve to quantify Linifanib, Linifanib-C12-Asp and residual Linifanib-C12-AA5. • 2.2 Linifanib-C12-AA5 and Linifanib-C12-Asp liver/spleen homogenate incubation stability study protocol Test animal • Type: SD rat; Quantity: 2 • Sex: Male; Weight: 200-250 g

[3] = rat plasma incubation up to 8 h

SMILES | IC50 (22RV1) | IC50 (HEPG2) | IC50 (HLF) | IC50 (JHH4) | IC50 (JHH7) | IC50 (MDA-MB-435S) | IC50 (T.T) | IC50 values compared with Linifanib [1] | production of the intermediates Linifanib-C12-Asp and Linifanib in plasma [2, 3] | stability in plasma [2, 3] | level of Linifanib produced in plasma [2, 3] | stability in plasma ([2]; rat plasma incubation up to 8 h, listed as Linifanib-C12-Asp) | Residual intermediate ([2]; 0 h) | Residual intermediate ([2]; 0.5 h) | Residual intermediate ([2]; 1 h) | Residual intermediate ([2]; 2 h) | Residual intermediate ([2]; 4 h) | Residual intermediate ([2]; 6 h) | Residual intermediate ([2]; 8 h)
Cc1ccc(F)c(NC(=O)Nc2ccc(-c3cccc4c3c(N)nn4C(=O)C[C@H](N)C(=O)N[C@@H](CCC(=O)O)C(=O)O)cc2)c1 [Compound 1] | 6.69 µM | 0.45 µM | 3.98 µM | 2.62 µM | 1.81 µM | 18.9 µM | 5.22 µM | close to those of Linifanib |  |  |  |  |  |  |  |  |  |  | 
Cc1ccc(F)c(NC(=O)Nc2ccc(-c3cccc4c3c(N)nn4C(=O)C[C@H](N)C(=O)N[C@@H](CCC(=O)N[C@@H](CCC(=O)N[C@@H](CCC(=O)N[C@@H](CCC(=O)O)C(=O)O)C(=O)O)C(=O)O)C(=O)O)cc2)c1 [Compound 2] | 7.81 µM | 0.64 µM | 4.94 µM | 5.83 µM | 2.84 µM | 30 µM | 8.29 µM | close to those of Linifanib |  |  |  |  |  |  |  |  |  |  | 
Cc1ccc(F)c(NC(=O)Nc2ccc(-c3cccc4c3c(N)nn4C(=O)CCCCCNC(=O)C[C@H](N)C(=O)N[C@@H](CCC(=O)O)C(=O)O)cc2)c1 [Compound 4] | > 100 µM | 19 µM | 52.6 µM | 42.5 µM | 45.9 µM | 98.8 µM | > 100 µM |  |  |  |  |  |  |  |  |  |  |  | 
Cc1ccc(F)c(NC(=O)Nc2ccc(-c3cccc4c3c(N)nn4C(=O)CCCCCNC(=O)C[C@H](N)C(=O)N[C@@H](CCC(=O)N[C@@H](CCC(=O)N[C@@H](CCC(=O)N[C@@H](CCC(=O)O)C(=O)O)C(=O)O)C(=O)O)C(=O)O)cc2)c1 [Compound 5] | > 100 µM | 30.8 µM | 63.9 µM | 60.3 µM | 57.8 µM | > 100 µM | > 100 µM |  |  |  |  |  |  |  |  |  |  |  | 
Cc1ccc(F)c(NC(=O)Nc2ccc(-c3cccc4c3c(N)nn4C(=O)CCCCCNC(=O)C[C@H](N)C(=O)N[C@@H](CCC(=O)N[C@@H](CCC(=O)N[C@@H](CCC(=O)N[C@@H](CCC(=O)N[C@@H](CCC(=O)N[C@@H](CCC(=O)N[C@@H](CCC(=O)N[C@@H](CCC(=O)N[C@@H](CCC(=O)O)C(=O)O)C(=O)O)C(=O)O)C(=O)O)C(=O)O)C(=O)O)C(=O)O)C(=O)O)C(=O)O)cc2)c1 [Compound 6] | > 100 µM | 43.4 µM | 82.1 µM | 79 µM | 83.2 µM | > 100 µM | > 100 µM |  |  |  |  |  |  |  |  |  |  |  | 
Cc1ccc(F)c(NC(=O)Nc2ccc(-c3cccc4c3c(N)nn4C(=O)CCCCCCCCCCCNC(=O)C[C@H](N)C(=O)N[C@@H](CCC(=O)O)C(=O)O)cc2)c1 [Compound 7] | > 100 µM | 5.83 µM | 24.4 µM | 39.4 µM | 9.98 µM | > 100 µM | > 100 µM |  |  |  |  |  |  |  |  |  |  |  | 
Cc1ccc(F)c(NC(=O)Nc2ccc(-c3cccc4c3c(N)nn4C(=O)CCCCCCCCCCCNC(=O)C[C@H](N)C(=O)N[C@@H](CCC(=O)N[C@@H](CCC(=O)N[C@@H](CCC(=O)N[C@@H](CCC(=O)O)C(=O)O)C(=O)O)C(=O)O)C(=O)O)cc2)c1 [Compound 8] | > 100 µM | 21.4 µM | 44.6 µM | 95.9 µM | 20.7 µM | 38.5 µM | > 100 µM |  | did not produce | stable in plasma |  |  |  |  |  |  |  |  | 
Cc1ccc(F)c(NC(=O)Nc2ccc(-c3cccc4c3c(N)nn4C(=O)CCCCCCCCCCCNC(=O)C[C@H](N)C(=O)N[C@@H](CCC(=O)N[C@@H](CCC(=O)N[C@@H](CCC(=O)N[C@@H](CCC(=O)N[C@@H](CCC(=O)N[C@@H](CCC(=O)N[C@@H](CCC(=O)N[C@@H](CCC(=O)N[C@@H](CCC(=O)O)C(=O)O)C(=O)O)C(=O)O)C(=O)O)C(=O)O)C(=O)O)C(=O)O)C(=O)O)C(=O)O)cc2)c1 [Compound 9] | > 100 µM | 11 µM | 63.4 µM | > 100 µM | 42.2 µM | > 100 µM | > 100 µM |  |  |  |  |  |  |  |  |  |  |  | 
Cc1ccc(F)c(NC(=O)Nc2ccc(-c3cccc4c3c(N)nn4C(=O)CCCCCNC(=O)C[C@H](N)C(=O)O)cc2)c1 [Compound 11] | 90.1 µM | 11.1 µM | 49.4 µM | 38.7 µM | 40 µM | 87.6 µM | > 100 µM |  |  |  |  |  |  |  |  |  |  |  | 
Cc1ccc(F)c(NC(=O)Nc2ccc(-c3cccc4c3c(N)nn4C(=O)CCCCCCCCCCCNC(=O)C[C@H](N)C(=O)O)cc2)c1 [Compound 12] | > 30 µM | > 30 µM | > 30 µM | > 30 µM | > 30 µM | > 30 µM | > 30 µM |  |  |  | close to zero | stably incubated in plasma; also recorded: stable in plasma | 1900 ng/mL and 2180 ng/mL | 2100 ng/mL and 2290 ng/mL | 2180 ng/mL and 2290 ng/mL | 2160 ng/mL and 2110 ng/mL | 2210 ng/mL and 2270 ng/mL | 2070 ng/mL and 1880 ng/mL | 1940 ng/mL and 2060 ng/mL
Cc1ccc(F)c(NC(=O)Nc2ccc(-c3cccc4[nH]nc(N)c34)cc2)c1 [Linifanib, reference compound] | 7.5 µM | 0.83 µM | 3.65 µM | 10.6 µM | 1.83 µM | 10.7 µM | 4.86 µM |  |  |  |  |  |  |  |  |  |  |  | 
